Laboratory results from ChEMBL document CHEMBL1155056, “4-(Anilino)pyrrole-2-carboxamides: Novel non-steroidal/non-anilide type androgen antagonists effective upon human prostate tumor LNCaP cells with mutated nuclear androgen receptor” (Bioorg Med Chem, 2008).
The source made the active and inactive calls. No cut-off for these calls is given here.

Tests used:
Androgen receptor [1] = target: Androgen receptor (Homo sapiens, UniProt P10275, T878A); experiment: Displacement of [3H]testosterone from human recombinant androgen receptor T877A mutant expressed in LNCaP cells
Chain of Androgen receptor (Homo sapiens, UniProt P10275, T878A) (P10275 whole entry T878A): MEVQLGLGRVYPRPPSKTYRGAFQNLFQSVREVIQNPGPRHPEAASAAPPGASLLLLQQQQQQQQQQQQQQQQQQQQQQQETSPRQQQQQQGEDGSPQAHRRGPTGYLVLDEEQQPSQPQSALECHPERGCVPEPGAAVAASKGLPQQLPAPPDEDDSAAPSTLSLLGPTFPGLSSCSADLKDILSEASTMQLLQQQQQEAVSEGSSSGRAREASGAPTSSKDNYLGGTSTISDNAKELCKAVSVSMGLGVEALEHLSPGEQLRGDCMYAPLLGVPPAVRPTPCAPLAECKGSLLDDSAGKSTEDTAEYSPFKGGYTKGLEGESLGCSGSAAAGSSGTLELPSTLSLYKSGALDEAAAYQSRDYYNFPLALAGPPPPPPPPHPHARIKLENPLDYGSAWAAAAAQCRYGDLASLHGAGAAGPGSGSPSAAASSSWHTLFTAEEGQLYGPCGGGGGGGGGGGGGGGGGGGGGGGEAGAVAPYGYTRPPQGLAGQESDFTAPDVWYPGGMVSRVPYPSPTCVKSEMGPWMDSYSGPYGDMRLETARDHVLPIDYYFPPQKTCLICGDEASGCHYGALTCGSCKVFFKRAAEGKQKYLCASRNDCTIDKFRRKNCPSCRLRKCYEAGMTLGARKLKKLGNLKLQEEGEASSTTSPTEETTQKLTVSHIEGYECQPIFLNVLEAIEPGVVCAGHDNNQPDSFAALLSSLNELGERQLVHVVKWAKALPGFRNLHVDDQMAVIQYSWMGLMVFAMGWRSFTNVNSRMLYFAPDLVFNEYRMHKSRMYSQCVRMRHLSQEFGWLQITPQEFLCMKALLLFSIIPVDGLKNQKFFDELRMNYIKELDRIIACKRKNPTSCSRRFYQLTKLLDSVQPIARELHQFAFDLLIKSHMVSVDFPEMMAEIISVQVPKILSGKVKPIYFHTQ

Androgen receptor [2] = target: T1, Androgen receptor (Homo sapiens, UniProt P10275)
T1 sequence (P10275 whole entry): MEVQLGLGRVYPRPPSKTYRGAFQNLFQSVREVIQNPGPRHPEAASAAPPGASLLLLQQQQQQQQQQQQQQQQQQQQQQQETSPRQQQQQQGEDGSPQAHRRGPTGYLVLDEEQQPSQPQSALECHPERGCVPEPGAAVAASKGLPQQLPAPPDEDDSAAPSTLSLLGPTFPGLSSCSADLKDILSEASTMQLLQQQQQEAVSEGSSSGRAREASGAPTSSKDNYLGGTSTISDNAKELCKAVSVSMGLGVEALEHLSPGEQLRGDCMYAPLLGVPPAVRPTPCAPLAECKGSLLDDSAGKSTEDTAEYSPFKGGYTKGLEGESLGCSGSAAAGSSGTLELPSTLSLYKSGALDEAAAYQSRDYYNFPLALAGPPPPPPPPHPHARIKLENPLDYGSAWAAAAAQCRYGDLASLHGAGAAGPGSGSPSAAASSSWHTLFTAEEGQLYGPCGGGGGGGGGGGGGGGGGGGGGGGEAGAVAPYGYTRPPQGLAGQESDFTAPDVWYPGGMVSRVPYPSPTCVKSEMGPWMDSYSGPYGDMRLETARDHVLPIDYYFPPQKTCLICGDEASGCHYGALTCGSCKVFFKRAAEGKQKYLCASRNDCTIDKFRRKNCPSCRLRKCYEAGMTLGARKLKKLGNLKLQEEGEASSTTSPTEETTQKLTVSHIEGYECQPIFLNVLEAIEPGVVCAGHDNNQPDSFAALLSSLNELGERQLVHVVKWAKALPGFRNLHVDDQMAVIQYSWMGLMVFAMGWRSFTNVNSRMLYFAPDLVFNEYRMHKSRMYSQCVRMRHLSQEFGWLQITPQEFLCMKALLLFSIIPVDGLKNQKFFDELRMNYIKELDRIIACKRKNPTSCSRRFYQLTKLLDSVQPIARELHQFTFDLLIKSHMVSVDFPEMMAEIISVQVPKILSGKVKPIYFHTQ

[3] = target: T2, Androgen receptor (Homo sapiens) (UniProt P10275); settings: 30 uM
T2 sequence (whole entry): T1 sequence (P10275 whole entry)
Description: Displacement of [3H]testosterone from wild type human androgen receptor at 30 uM

[4] = target: T2, Androgen receptor (Homo sapiens); experiment: Displacement of [3H]testosterone from wild type human androgen receptor at 3 uM
[5] = system: Androgen receptor (Homo sapiens), P10275 [T878A]; experiment: Antagonist activity at human recombinant androgen receptor T877A mutant assessed as inhibition of prostate specific antigen production in human LNCaP cells by ELISA; type: functional, cell-based
Chain of Androgen receptor (Homo sapiens), P10275 [T878A] (P10275 whole entry T878A): as the sequence (P10275 whole entry T878A) above

LNCaP = experiment: Antiproliferative activity against human LNCaP cells; type: functional, cell-based
[6] = target: T2, Androgen receptor (Homo sapiens); experiment: Antagonist activity at wild type human recombinant androgen receptor assessed as inhibition of testosterone-induced growth of mouse androgen dependent SC3 cells at 1 uM by WST-1 method; type: functional, cell-based; settings: SC-3

Compound	Ki (Androgen receptor [1]) [nM]	Ki (Androgen receptor [2]) [nM]	further results
Cn1cc(N(Cc2ccccc2)c2ccc([N+](=O)[O-])cc2)cc1C(=O)O	3	75	–
Cc1cc(C)cc(N(Cc2ccc(CO)cc2)c2cc(C(=O)N3CCCC3)n(C)c2)c1	–	2200	–
CCN(c1cc(C)cc(C)c1)c1cc(C(=O)N2CCCC2)n(C)c1	–	2700	–
O=C(c1ccc(N(Cc2ccccc2)c2ccc([N+](=O)[O-])cc2)cc1)N1CCCC1	–	340	–
Cn1cc(N(Cc2ccccc2)c2ccc([N+](=O)[O-])c(C(F)(F)F)c2)cc1C(=O)N1CCCC1	49	–	inhibition [3]: 52%
CN(c1ccc([N+](=O)[O-])cc1)c1cc(C(=O)N2CCCC2)n(C)c1	–	3600	–
Cn1cc(N(Cc2ccccc2)c2ccc([N+](=O)[O-])cc2)cc1C(=O)N1CCc2ccccc21	9	–	inhibition [4]: 25%
Cn1cc(N(Cc2ccccc2)c2ccc([N+](=O)[O-])cc2)cc1C(N)=O	–	220	–
O=C(c1cccc(N(Cc2ccccc2)c2ccc([N+](=O)[O-])cc2)c1)N1CCCC1	–	370	–
Cn1cc(N(Cc2ccc(O)cc2)c2ccc([N+](=O)[O-])cc2)cc1C(=O)N1CCCC1	330	730	–
CCN(CC)C(=O)c1cc(N(Cc2ccccc2)c2ccc([N+](=O)[O-])cc2)cn1C	3	100	–
CCN(c1ccc([N+](=O)[O-])cc1)c1cc(C(=O)N2CCCC2)n(C)c1	–	2000	–
CC(=O)c1ccc(N(Cc2ccccc2)c2cc(C(=O)N3CCCC3)n(C)c2)cc1	130	140	Activity [5]: inactive
Cn1cc(N(Cc2ccc(CO)cc2)c2ccc([N+](=O)[O-])cc2)cc1C(=O)N1CCCC1	1400	1800	–
Cn1cc(N(Cc2ccccc2)c2ccc([N+](=O)[O-])cc2)cc1C(=O)N1CCCC1	5	110	Activity (LNCaP): Active
CCOC(=O)c1cc(N(Cc2ccccc2)c2ccc([N+](=O)[O-])cc2)cn1C	7	180	–
Cc1cc(C)cc(N(C)c2cc(C(=O)N3CCCC3)n(C)c2)c1	–	6100	–
Cn1cc(N(Cc2ccccc2)c2ccc([N+](=O)[O-])cc2)cc1CO	–	170	–

Compound	Ki (Androgen receptor [1]) [nM]	Ki (Androgen receptor [2]) [nM]	further results
Cn1cc(N(Cc2ccccc2)c2ccc([N+](=O)[O-])cc2)cc1C(=O)N1CCCCC1	27	110	–
Cc1cc(C)cc(N(Cc2ccccc2)c2cc(C(=O)N3CCCC3)n(C)c2)c1	–	350	inhibition [4]: 20%
Cn1cc(Nc2ccc([N+](=O)[O-])cc2)cc1C(=O)N1CCCC1	–	4900	–
Cn1cc(N(Cc2ccccc2)c2ccc(C#N)cc2)cc1C(=O)N1CCCC1	6	130	–
Cc1cc(C)cc(N(Cc2ccc(O)cc2)c2cc(C(=O)N3CCCC3)n(C)c2)c1	–	690	–
Cn1cc(N(Cc2ccccc2)c2ccc(C(F)(F)F)cc2)cc1C(=O)N1CCCC1	36	270	–
CC(C)(O)C(=O)Nc1ccc([N+](=O)[O-])c(C(F)(F)F)c1	–	–	Activity (LNCaP): inactive
COC(=O)c1ccc(N(Cc2ccccc2)c2cc(C(=O)N3CCCC3)n(C)c2)cc1	180	180	Activity [5]: inactive
Cn1cc(N(Cc2ccc(F)cc2)c2ccc([N+](=O)[O-])cc2)cc1C(=O)N1CCCC1	140	800	–
Cc1ccc(CN(c2ccc([N+](=O)[O-])cc2)c2cc(C(=O)N3CCCC3)n(C)c2)cc1	130	810	–
Cc1cc(C)cc(N(CC2CCCCC2)c2cc(C(=O)N3CCCC3)n(C)c2)c1	–	490	–
Cn1cc(N(CC2CCCCC2)c2ccc([N+](=O)[O-])cc2)cc1C(=O)N1CCCC1	–	520	–
Cc1cc(C)cc(N(c2cc(C(=O)N3CCCC3)n(C)c2)C(C)C)c1	–	2700	–
Cc1cc(C)cc(Nc2cc(C(=O)N3CCCC3)n(C)c2)c1	–	3100	–
C[C@](O)(CS(=O)(=O)c1ccc(F)cc1)C(=O)Nc1ccc(C#N)c(C(F)(F)F)c1	–	–	Activity (LNCaP): Active
Cn1cc(N(Cc2ccccc2)c2ccccc2[N+](=O)[O-])cc1C(=O)N1CCCC1	–	1300	inhibition [6]: 27%
CC(C)N(c1ccc([N+](=O)[O-])cc1)c1cc(C(=O)N2CCCC2)n(C)c1	–	3400	–
